According to patent US10239869B2, “Sulfonamide compounds as voltage-gated sodium channel modulators” (LUPIN LIMITED, priority 2015, dated 2019):
Read-outs that look alike come from different tables or passages of the source.

Columns and labels:
Nav 1.5 = Nav 1.5 (Homo sapiens (Human), UniProt Q14524); assay: Inhibition of sodium channels, Red Membrane Potential Dye FLIPR assay, veratridine depolarization; format: cell-based; details: HEK-293 cells overexpressing the channel
Nav 1.7 = Nav 1.7 (Homo sapiens (Human), UniProt Q15858); assay: as above; format: cell-based; details: HEK-293 cells overexpressing the channel; for IC50: read-out: Nav1.7 IC50
[1] = read-out: Nav1.5 IC50 (bound given in μM)

Sequence of Nav 1.5 (Q14524 whole entry): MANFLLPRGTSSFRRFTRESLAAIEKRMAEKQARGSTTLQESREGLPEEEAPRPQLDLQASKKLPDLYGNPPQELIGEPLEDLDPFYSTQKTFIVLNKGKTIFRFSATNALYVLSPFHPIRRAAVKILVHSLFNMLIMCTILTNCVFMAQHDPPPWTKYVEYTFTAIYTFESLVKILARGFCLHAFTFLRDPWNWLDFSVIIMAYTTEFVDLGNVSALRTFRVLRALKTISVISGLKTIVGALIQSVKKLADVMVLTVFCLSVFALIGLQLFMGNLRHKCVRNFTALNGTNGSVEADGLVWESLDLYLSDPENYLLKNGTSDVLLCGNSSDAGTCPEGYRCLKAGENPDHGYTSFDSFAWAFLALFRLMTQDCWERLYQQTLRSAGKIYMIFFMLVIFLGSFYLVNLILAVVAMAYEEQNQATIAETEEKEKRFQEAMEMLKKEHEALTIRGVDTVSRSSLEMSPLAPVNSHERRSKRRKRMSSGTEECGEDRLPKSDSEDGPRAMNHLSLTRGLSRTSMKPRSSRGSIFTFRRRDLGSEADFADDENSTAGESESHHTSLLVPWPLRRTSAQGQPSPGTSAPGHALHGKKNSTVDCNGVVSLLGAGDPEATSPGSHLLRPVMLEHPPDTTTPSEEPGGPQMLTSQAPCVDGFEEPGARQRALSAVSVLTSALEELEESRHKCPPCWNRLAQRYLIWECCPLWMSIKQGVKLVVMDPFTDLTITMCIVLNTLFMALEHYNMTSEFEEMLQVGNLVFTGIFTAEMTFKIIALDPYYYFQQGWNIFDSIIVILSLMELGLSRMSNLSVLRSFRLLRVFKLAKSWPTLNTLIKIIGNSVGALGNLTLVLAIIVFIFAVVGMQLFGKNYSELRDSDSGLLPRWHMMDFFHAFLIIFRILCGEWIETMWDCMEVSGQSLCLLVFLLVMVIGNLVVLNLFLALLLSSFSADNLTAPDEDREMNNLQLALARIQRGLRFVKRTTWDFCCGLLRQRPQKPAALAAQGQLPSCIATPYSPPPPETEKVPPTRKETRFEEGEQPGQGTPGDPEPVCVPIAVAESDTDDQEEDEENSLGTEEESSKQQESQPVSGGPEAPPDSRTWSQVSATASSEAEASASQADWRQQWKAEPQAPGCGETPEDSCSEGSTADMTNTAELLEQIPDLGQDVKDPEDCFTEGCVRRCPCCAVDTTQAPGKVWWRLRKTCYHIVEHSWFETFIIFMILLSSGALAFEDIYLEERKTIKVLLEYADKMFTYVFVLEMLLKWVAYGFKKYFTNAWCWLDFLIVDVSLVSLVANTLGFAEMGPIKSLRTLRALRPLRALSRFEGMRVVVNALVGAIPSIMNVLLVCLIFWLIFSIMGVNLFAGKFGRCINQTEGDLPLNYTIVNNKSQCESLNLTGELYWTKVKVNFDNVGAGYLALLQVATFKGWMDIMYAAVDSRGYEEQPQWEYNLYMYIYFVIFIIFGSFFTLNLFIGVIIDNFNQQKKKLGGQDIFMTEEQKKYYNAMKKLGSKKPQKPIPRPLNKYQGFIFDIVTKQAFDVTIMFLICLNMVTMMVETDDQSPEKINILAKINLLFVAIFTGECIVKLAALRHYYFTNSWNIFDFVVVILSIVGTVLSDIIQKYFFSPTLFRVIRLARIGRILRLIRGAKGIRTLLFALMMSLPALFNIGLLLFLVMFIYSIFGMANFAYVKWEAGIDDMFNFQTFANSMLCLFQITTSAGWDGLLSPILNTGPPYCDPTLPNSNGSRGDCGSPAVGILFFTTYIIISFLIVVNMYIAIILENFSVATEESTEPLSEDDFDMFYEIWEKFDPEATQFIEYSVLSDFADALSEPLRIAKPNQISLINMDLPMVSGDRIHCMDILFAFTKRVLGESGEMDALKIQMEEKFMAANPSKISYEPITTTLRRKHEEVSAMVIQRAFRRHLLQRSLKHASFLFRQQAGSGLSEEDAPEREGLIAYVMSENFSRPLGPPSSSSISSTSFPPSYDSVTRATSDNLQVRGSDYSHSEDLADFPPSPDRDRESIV
Sequence of Nav 1.7 (Q15858 whole entry): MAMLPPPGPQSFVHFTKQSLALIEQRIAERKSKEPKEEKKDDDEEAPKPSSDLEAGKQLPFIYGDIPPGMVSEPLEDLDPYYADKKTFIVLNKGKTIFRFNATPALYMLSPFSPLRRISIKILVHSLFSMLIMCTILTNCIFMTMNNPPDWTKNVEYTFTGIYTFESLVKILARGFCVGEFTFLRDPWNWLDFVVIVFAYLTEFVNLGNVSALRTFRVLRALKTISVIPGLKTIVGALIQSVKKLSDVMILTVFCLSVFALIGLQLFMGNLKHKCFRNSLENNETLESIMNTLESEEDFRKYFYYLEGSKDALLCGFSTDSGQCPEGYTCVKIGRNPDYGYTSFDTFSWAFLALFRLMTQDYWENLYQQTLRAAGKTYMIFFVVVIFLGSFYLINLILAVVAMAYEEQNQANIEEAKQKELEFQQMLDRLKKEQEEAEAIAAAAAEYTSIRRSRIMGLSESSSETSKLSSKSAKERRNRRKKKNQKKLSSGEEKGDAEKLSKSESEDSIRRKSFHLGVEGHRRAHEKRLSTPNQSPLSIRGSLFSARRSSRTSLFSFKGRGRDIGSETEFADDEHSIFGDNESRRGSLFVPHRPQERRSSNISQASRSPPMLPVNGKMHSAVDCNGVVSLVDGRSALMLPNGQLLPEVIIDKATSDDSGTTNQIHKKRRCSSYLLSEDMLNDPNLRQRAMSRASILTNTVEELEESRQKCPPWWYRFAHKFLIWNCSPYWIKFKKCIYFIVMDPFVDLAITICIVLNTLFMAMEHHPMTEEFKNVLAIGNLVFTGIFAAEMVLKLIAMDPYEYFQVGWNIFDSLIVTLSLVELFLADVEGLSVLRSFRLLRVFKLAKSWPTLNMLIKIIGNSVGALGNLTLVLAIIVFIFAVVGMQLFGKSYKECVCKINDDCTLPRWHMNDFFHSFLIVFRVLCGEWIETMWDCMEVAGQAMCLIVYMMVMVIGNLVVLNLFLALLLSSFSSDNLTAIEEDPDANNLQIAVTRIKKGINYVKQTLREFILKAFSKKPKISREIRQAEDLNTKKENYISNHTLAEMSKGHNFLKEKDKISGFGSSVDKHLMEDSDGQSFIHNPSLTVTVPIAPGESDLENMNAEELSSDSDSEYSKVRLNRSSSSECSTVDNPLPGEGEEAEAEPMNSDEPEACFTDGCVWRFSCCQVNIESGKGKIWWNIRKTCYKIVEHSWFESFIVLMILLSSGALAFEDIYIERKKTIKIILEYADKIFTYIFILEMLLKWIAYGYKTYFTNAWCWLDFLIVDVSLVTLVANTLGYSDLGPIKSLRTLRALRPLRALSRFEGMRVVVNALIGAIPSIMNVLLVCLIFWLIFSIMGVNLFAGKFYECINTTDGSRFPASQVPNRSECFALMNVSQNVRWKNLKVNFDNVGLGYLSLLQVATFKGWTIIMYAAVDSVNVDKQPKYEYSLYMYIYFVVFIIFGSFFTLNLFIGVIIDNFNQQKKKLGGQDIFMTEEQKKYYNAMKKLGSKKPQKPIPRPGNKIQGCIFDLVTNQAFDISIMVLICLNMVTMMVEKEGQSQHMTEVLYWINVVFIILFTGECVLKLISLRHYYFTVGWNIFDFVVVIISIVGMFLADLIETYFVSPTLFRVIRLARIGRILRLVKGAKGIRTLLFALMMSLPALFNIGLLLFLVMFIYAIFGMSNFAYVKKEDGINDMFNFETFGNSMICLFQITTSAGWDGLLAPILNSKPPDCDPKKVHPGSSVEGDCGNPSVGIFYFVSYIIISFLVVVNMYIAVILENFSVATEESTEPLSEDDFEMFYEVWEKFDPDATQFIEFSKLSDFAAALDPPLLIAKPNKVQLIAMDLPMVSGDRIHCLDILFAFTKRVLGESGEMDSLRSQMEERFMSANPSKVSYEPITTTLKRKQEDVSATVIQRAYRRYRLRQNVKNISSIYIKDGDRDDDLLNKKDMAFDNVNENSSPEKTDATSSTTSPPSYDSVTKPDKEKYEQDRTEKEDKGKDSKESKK

Compound	IC50 (Nav 1.5; read-out: Nav1.5 IC50)	IC50 (Nav 1.7)	IC50 (Nav 1.5; [1])	Nav1.7 inhibition @ 10 μM (Nav 1.7)	Nav1.5 % inhibition @ 10 μM (Nav 1.5)
Cc1nc(-c2cc(C(F)(F)F)ccc2[C@H]2CCOc3cc(S(=O)(=O)Nc4cccnn4)ccc32)ccc1F (racemic) [Example-224, (R/S)-4-(2-(5-fluoro-6-methylpyridin-2-yl)-4-(trifluoromethyl)phenyl)-N-(pyridazin-3-yl)chroman-7-sulfonamide]	2.12 µM	51 nM	–	–	–
Cc1nc(-c2cc(C(F)(F)F)ccc2[C@H]2CCOc3cc(S(=O)(=O)Nc4cccc(F)n4)ccc32)ccc1F (racemic) [Example-225, (R/S)-4-(2-(5-fluoro-6-methylpyridin-2-yl)-4-(trifluoromethyl)phenyl)-N-(6-fluoropyridin-2-yl)chroman-7-sulfonamide]	1.5 µM	12 nM	–	–	–
O=S1(=O)CCN(c2cc(C(F)(F)F)ccc2[C@H]2CCOc3cc(S(=O)(=O)Nc4cccnn4)ccc32)CC1 (racemic) [Example-236, (R/S)-4-(2-(1,1-dioxidothiomorpholino)-4-(trifluoromethyl)phenyl)-N-(pyridazin-3-yl)chroman-7-sulfonamide]	–	113 nM	> 10 µM	–	–
Cc1ccc(-c2cc(C(F)(F)F)ccc2[C@H]2CCOc3cc(S(=O)(=O)Nc4cccnn4)ccc32)cn1 (stereo in doubt) [Example-205, (R/S)-4-(2-(6-methylpyridin-3-yl)-4-(trifluoromethyl)phenyl)-N-(pyridazin-3-yl)chroman-7-sulfonamide]	0.25 µM	8 nM	–	–	–
Cn1nccc1-c1cc(C(F)(F)F)ccc1[C@@H]1CCOc2cc(S(=O)(=O)Nc3cnccn3)ccc21 [Example 11, (S&R)-4-(2-(1-Methyl-1H-pyrazol-5-yl)-4-(trifluoromethyl)phenyl)-N-(pyrazin-2-yl) chromane-7-sulfonamide]	–	–	> 10 µM	96%	–
Cn1nccc1-c1cc(C(F)(F)F)ccc1[C@@H]1CCOc2cc(S(=O)(=O)Nc3ncccc3F)ccc21 [Example 17, (S&R)—N-(3-Fluoropyridin-2-yl)-4-(2-(1-methyl-1H-pyrazol-5-yl)-4-(trifluoromethyl)phenyl)chromane-7-sulfonamide]	–	–	> 10 µM	96%	–
Cn1nccc1-c1cc(C(F)(F)F)ccc1[C@H]1CCOc2cc(S(=O)(=O)Nc3ncccc3F)ccc21 [Example 18, (S&R)—N-(3-Fluoropyridin-2-yl)-4-(2-(1-methyl-1H-pyrazol-5-yl)-4-(trifluoromethyl)phenyl)chromane-7-sulfonamide]	–	759 nM	> 10 µM	–	–
Cc1cccc(NS(=O)(=O)c2ccc3c(c2)OCC[C@H]3c2ccc(C(F)(F)F)cc2-c2ccnn2C)n1 [Example 19, (S&R)-4-(2-(1-methyl-1H-pyrazol-5-yl)-4-(trifluoromethyl)phenyl)-N-(6-methylpyridin-2-yl)chroman-7-sulfonamide]	–	1010 nM	> 10 µM	–	–
Cc1ccc(NS(=O)(=O)c2ccc3c(c2)OCC[C@H]3c2ccc(C(F)(F)F)cc2-c2ccnn2C)nc1 [Example 21, (S&R)-4-(2-(1-methyl-1H-pyrazol-5-yl)-4-(trifluoromethyl)phenyl)-N-(5-methylpyridin-2-yl)chroman-7-sulfonamide]	–	4270 nM	–	–	57%
Cc1ccc(NS(=O)(=O)c2ccc3c(c2)OCC[C@@H]3c2ccc(C(F)(F)F)cc2-c2ccnn2C)nc1 [Example 22, (S&R)-4-(2-(1-methyl-1H-pyrazol-5-yl)-4-(trifluoromethyl)phenyl)-N-(5-methylpyridin-2-yl)chroman-7-sulfonamide]	–	2060 nM	–	–	74%
Cc1ccnc(NS(=O)(=O)c2ccc3c(c2)OCC[C@H]3c2ccc(C(F)(F)F)cc2-c2ccnn2C)c1 [Example 23, (S&R)-4-(2-(1-methyl-1H-pyrazol-5-yl)-4-(trifluoromethyl)phenyl)-N-(4-methylpyridin-2-yl)chroman-7-sulfonamide]	–	3690 nM	–	–	59%
Cc1ccnc(NS(=O)(=O)c2ccc3c(c2)OCC[C@@H]3c2ccc(C(F)(F)F)cc2-c2ccnn2C)c1 [Example 24, (S&R)-4-(2-(1-methyl-1H-pyrazol-5-yl)-4-(trifluoromethyl)phenyl)-N-(4-methylpyridin-2-yl)chroman-7-sulfonamide]	3.92 µM	816 nM	–	–	–
CC(C)Oc1cccc(NS(=O)(=O)c2ccc3c(c2)OCC[C@H]3c2ccc(C(F)(F)F)cc2-c2ccnn2C)n1 [Example 25, (S&R)—N-(6-isopropoxypyridin-2-yl)-4-(2-(1-methyl-1H-pyrazol-5-yl)-4-(trifluoromethyl)phenyl)chroman-7-sulfonamide]	–	221 nM	> 10 µM	–	–
CC(C)Oc1cccc(NS(=O)(=O)c2ccc3c(c2)OCC[C@@H]3c2ccc(C(F)(F)F)cc2-c2ccnn2C)n1 [Example 26, (S&R)—N-(6-isopropoxypyridin-2-yl)-4-(2-(1-methyl-1H-pyrazol-5-yl)-4-(trifluoromethyl)phenyl)chroman-7-sulfonamide]	–	685 nM	> 10 µM	–	–
Cn1nccc1-c1cc(C(F)(F)F)ccc1[C@@H]1CCOc2cc(S(=O)(=O)Nc3cccnc3F)ccc21 [Example 27, (S&R)—N-(2-fluoropyridin-3-yl)-4-(2-(1-methyl-1H-pyrazol-5-yl)-4-(trifluoromethyl)phenyl)chroman-7-sulfonamide]	–	–	> 10 µM	80%	–
Cn1nccc1-c1cc(C(F)(F)F)ccc1[C@H]1CCOc2cc(S(=O)(=O)Nc3cccnc3F)ccc21 [Example 28, (S&R)—N-(2-fluoropyridin-3-yl)-4-(2-(1-methyl-1H-pyrazol-5-yl)-4-(trifluoromethyl)phenyl)chroman-7-sulfonamide]	–	1570 nM	> 10 µM	–	–
Cc1ccnc(NS(=O)(=O)c2ccc3c(c2)OCC[C@H]3c2ccc(C(F)(F)F)cc2-c2ccnn2C)n1 [Example 29, (S&R)-4-(2-(1-methyl-1H-pyrazol-5-yl)-4-(trifluoromethyl)phenyl)-N-(4-methylpyrimidin-2-yl)chroman-7-sulfonamide]	–	–	> 10 µM	91%	–
Cc1ccnc(NS(=O)(=O)c2ccc3c(c2)OCC[C@@H]3c2ccc(C(F)(F)F)cc2-c2ccnn2C)n1 [Example 30, (S&R)-4-(2-(1-methyl-1H-pyrazol-5-yl)-4-(trifluoromethyl)phenyl)-N-(4-methylpyrimidin-2-yl)chroman-7-sulfonamide]	–	–	> 10 µM	72%	–
Cn1nccc1-c1cc(Cl)ccc1[C@@H]1CCOc2cc(S(=O)(=O)Nc3cccc(F)n3)ccc21 [Example 31, (S&R)-4-(4-chloro-2-(1-methyl-1H-pyrazol-5-yl)phenyl)-N-(6-fluoropyridin-2-yl)chroman-7-sulfonamide]	–	2050 nM	> 10 µM	–	–
Cn1nccc1-c1cc(Cl)ccc1[C@H]1CCOc2cc(S(=O)(=O)Nc3cccc(F)n3)ccc21 [Example 32, (S&R)-4-(4-chloro-2-(1-methyl-1H-pyrazol-5-yl)phenyl)-N-(6-fluoropyridin-2-yl)chroman-7-sulfonamide]	–	151 nM	> 10 µM	–	–
CC(C)Oc1ccc([C@@H]2CCOc3cc(S(=O)(=O)Nc4cccc(F)n4)ccc32)c(-c2ccnn2C)c1 [Example 33, (S&R)—N-(6-fluoropyridin-2-yl)-4-(4-isopropoxy-2-(1-methyl-1H-pyrazol-5-yl)phenyl)chroman-7-sulfonamide]	–	514 nM	> 10 µM	–	–
CC(C)Oc1ccc([C@H]2CCOc3cc(S(=O)(=O)Nc4cccc(F)n4)ccc32)c(-c2ccnn2C)c1 [Example 34, (S&R)—N-(6-fluoropyridin-2-yl)-4-(4-isopropoxy-2-(1-methyl-1H-pyrazol-5-yl)phenyl)chroman-7-sulfonamide]	–	57 nM	> 10 µM	–	–
O=S(=O)(Nc1cccnn1)c1ccc2c(c1)OCC[C@H]2c1ccc(C(F)(F)F)cc1-c1ccc(F)nc1 [Example 41, (S&R)-4-(2-(6-Fluoropyridin-3-yl)-4-(trifluoromethyl)phenyl)-N-(pyridazin-3-yl)chromane-7-sulfonamide]	–	622 nM	> 10 µM	–	–
O=S(=O)(Nc1cccnn1)c1ccc2c(c1)OCC[C@@H]2c1ccc(C(F)(F)F)cc1-c1ccc(F)nc1 [Example 42, (S&R)-4-(2-(6-Fluoropyridin-3-yl)-4-(trifluoromethyl)phenyl)-N-(pyridazin-3-yl)chromane-7-sulfonamide]	0.644 µM	0.2 nM	–	–	–
O=S(=O)(Nc1ccncn1)c1ccc2c(c1)OCC[C@H]2c1ccc(C(F)(F)F)cc1-c1ccc(F)cc1 [Example 47, (S&R)-4-(4′-Fluoro-5-(trifluoromethyl)-[1,1′-biphenyl]-2-yl)-N-(pyrimidin-4-yl)chromane-7-sulfonamide]	–	–	> 10 µM	64%	–
O=S(=O)(Nc1cccnn1)c1ccc2c(c1)OCCC2c1ccc(C(F)(F)F)cc1-n1ccnn1 (stereo not drawn) [Example 53, (S&R)-4-(2-(1H-1,2,3-Triazol-1-yl)-4-(trifluoromethyl)phenyl)-N-(pyridazin-3-yl)chromane-7-sulfonamide]	–	–	–	70%	44%
O=S(=O)(Nc1cccnn1)c1ccc2c(c1)OCC[C@@H]2c1ccc(C(F)(F)F)cc1-n1ccnn1 [Example 54, (S&R)-4-(2-(1H-1,2,3-Triazol-1-yl)-4-(trifluoromethyl)phenyl)-N-(pyridazin-3-yl)chromane-7-sulfonamide]	–	706 nM	> 10 µM	–	–
Cc1nc(-c2cc(C(F)(F)F)ccc2[C@@H]2CCOc3cc(S(=O)(=O)Nc4cccc(F)n4)ccc32)cs1 [Example 61]	–	568 nM	> 10 µM	–	–
Cc1nc(-c2cc(C(F)(F)F)ccc2[C@H]2CCOc3cc(S(=O)(=O)Nc4cccc(F)n4)ccc32)cs1 [Example 62]	–	5 nM	–	–	42%
Cc1nc(-c2cc(C(F)(F)F)ccc2[C@@H]2CCOc3cc(S(=O)(=O)Nc4ncccn4)ccc32)cs1 [Example 63, (S&R)-4-(2-(2-Methylthiazol-4-yl)-4-(trifluoromethyl)phenyl)-N-(pyrimidin-2-yl)chroman-7-sulfonamide]	–	526 nM	> 10 µM	–	–
